Test results as given in US10344019B2 (priority 2010, dated 2019).

Legend:
Assay type in all cases: cell-based
[1] = system: HCV 1a RLuc cells (dicistronic genotype 1a H77 replicon, RLuc reporter); experiment: microbe, parasite or virus in culture; conditions: Hepatitis C virus, genotype 1a H77 RLuc replicon; read-out: 1a
Outline: (§1)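 Replicons used: genotype 1b Con1, 1a H77, 2a JFH-1, and a 2a JFH-1 chimera with J6-strain NS5A (M31 present), all dicistronic.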

[2] = system: HCV 1b RLuc cells (dicistronic genotype 1b Con1 replicon, RLuc reporter); experiment: microbe, parasite or virus in culture; conditions: Hepatitis C virus, read-out: 1b (nM)
Outline: as §1

[3] = system: HCV 2a JFH-1 Rluc cells (dicistronic genotype 2a JFH-1 replicon, RLuc reporter); experiment: microbe, parasite or virus in culture; conditions: Hepatitis C virus, genotype 2a JFH-1 RLuc replicon; read-out: 2a JFH
Outline: as §1

[4] = system: HCV 2b Rluc cells (NS5A chimeric genotype 2a JFH-1 replicon with genotype 2b MD2b-1 NS5A gene, M31 present); experiment: microbe, parasite or virus in culture; conditions: Hepatitis C virus, read-out: 2b
Outline: (§2)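 Replicon cells stably carrying the listed RLuc-encoding dicistronic replicons were seeded and treated with DMSO serial dilutions of compound (10 mM stocks) diluted into culture medium. After 72 h, cells were lysed and Renilla luciferase activity measured. EC50 was derived by non-linear regression.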

[5] = system: HCV 3a RLuc cells (NS5A chimeric genotype 1b Con1 replicon with consensus genotype 3a NS5A gene); experiment: microbe, parasite or virus in culture; conditions: Hepatitis C virus, read-out: 3a, genotype 3a NS5A chimeric replicon
Outline: as §2

[6] = system: HCV 4a Rluc cells (NS5A chimeric genotype 1b Con1 replicon with genotype 4a NS5A gene); experiment: microbe, parasite or virus in culture; conditions: Hepatitis C virus, read-out: 4a
Outline: as §2

[7] = system: Q30R in genotype 1a NS5A, 1a Rluc replicon transfected into Huh-7 cured-51 cells; experiment: HCV replicon assay, resistance mutant 1a Q30R; conditions: Hepatitis C virus, Huh-7, read-out: 1a Q30R
Outline: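 Q30R introduced into genotype 1a H77 RLuc replicon by site-directed mutagenesis; replicon RNA transfected into Huh-7 cured-51 cells.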

[8] = system: HCV 2a Rluc cells (NS5A chimeric genotype 2a JFH-1 replicon with genotype 2a J6 strain NS5A gene, M31 present); experiment: HCV replicon reporter assay, genotype 2a J6 (M31 present); conditions: Hepatitis C virus, read-out: 2a J6
Outline: as §1

## COC[C@H]1C[C@@H](c2nc3ccc4cc(-c5ccc6c(ccc7nc([C@@H]8C[C@H](C)CN8C(=O)[C@@H](NC(=O)OC)C(C)C)[nH]c76)c5)ccc4c3[nH]2)N(C(=O)[C@@H](NC(=O)OC)[C@@H](C)OC)C1 [Example 559]
[1]
  EC50: 0.001 to 0.999 nM
[2]
  EC50: 0.08 nM
[3]
  EC50: 0.001 to 0.999 nM
[4]
  EC50: 0.001 to 0.999 nM
[5]
  EC50: 0.001 to 0.99 nM
[6]
  EC50: 0.001 to 0.99 nM
[7]
  EC50: 0.001 to 0.999 nM
[8]
  EC50: 0.001 to 0.999 nM

## COC[C@H]1C[C@@H](c2nc3ccc4cc(-c5ccc6c(ccc7nc([C@@H]8C[C@H](C)CN8C(=O)[C@@H](NC(=O)OC)C(C)C)[nH]c76)c5)ccc4c3[nH]2)N(C(=O)[C@@H](NC(=O)OC)C2CCOCC2)C1 [Example 560]
[1]
  EC50: 0.001 to 0.999 nM
[2]
  EC50: 0.092 nM
[3]
  EC50: 0.001 to 0.999 nM
[4]
  EC50: 0.001 to 0.999 nM
[5]
  EC50: 0.001 to 0.99 nM
[6]
  EC50: 0.001 to 0.99 nM
[7]
  EC50: 0.001 to 0.999 nM
[8]
  EC50: 0.001 to 0.999 nM

## COC[C@H]1C[C@@H](c2nc3ccc4cc5c(cc4c3[nH]2)OCc2cc(-c3cnc([C@@H]4CC[C@H](C)N4C(=O)[C@@H](NC(=O)OC)C(C)C)[nH]3)ccc2-5)N(C(=O)[C@@H](NC(=O)OC)C(C)C)C1 [Example 561]
[1]
  EC50: 0.001 to 0.999 nM
[2]
  EC50: 0.01 nM
[3]
  EC50: 0.001 to 0.999 nM
[4]
  EC50: 0.001 to 0.999 nM
[5]
  EC50: 0.001 to 0.99 nM
[6]
  EC50: 0.001 to 0.99 nM
[7]
  EC50: 0.001 to 0.999 nM
[8]
  EC50: 0.001 to 0.999 nM

## COC[C@H]1C[C@@H](c2nc3ccc4cc5c(cc4c3[nH]2)OCc2cc(-c3cnc([C@@H]4C[C@H](C)CN4C(=O)[C@@H](NC(=O)OC)C(C)C)[nH]3)ccc2-5)N(C(=O)[C@@H](NC(=O)OC)C(C)C)C1 [Example 562]
[1]
  EC50: 0.001 to 0.999 nM
[2]
  EC50: 0.019 nM
[3]
  EC50: 0.001 to 0.999 nM
[4]
  EC50: 0.001 to 0.999 nM
[5]
  EC50: 0.001 to 0.99 nM
[6]
  EC50: 0.001 to 0.99 nM
[7]
  EC50: 0.001 to 0.999 nM
[8]
  EC50: 0.001 to 0.999 nM

## COC(=O)N[C@H](C(=O)N1C[C@@H](C)C[C@H]1c1nc2ccc3cc4c(cc3c2[nH]1)OCc1cc(-c2cnc([C@@H]3CCCN3C(=O)[C@H](NC(=O)OC)c3ccccc3)[nH]2)ccc1-4)C(C)C [Example 565]
[1]
  EC50: 0.001 to 0.999 nM
[2]
  EC50: 0.017 nM
[3]
  EC50: 0.001 to 0.999 nM
[4]
  EC50: 0.001 to 0.999 nM
[5]
  EC50: 0.001 to 0.99 nM
[6]
  EC50: 0.001 to 0.99 nM
[7]
  EC50: 0.001 to 0.999 nM
[8]
  EC50: 0.001 to 0.999 nM

## COC(=O)N[C@H](C(=O)N1C[C@@H](C)C[C@H]1c1nc2ccc3cc4c(cc3c2[nH]1)OCc1cc(-c2cnc([C@@H]3CC[C@H](C)N3C(=O)[C@@H](NC(=O)OC)C(C)C)[nH]2)ccc1-4)C(C)C [Example 566]
[1]
  EC50: 0.001 to 0.999 nM
[2]
  EC50: 0.009 nM
[3]
  EC50: 0.001 to 0.999 nM
[4]
  EC50: 0.001 to 0.999 nM
[5]
  EC50: 0.001 to 0.99 nM
[6]
  EC50: 0.001 to 0.99 nM
[7]
  EC50: 0.001 to 0.999 nM
[8]
  EC50: 0.001 to 0.999 nM

## COC[C@H]1C[C@@H](c2nc3ccc4cc(-c5ccc(-c6cnc([C@@H]7CCCN7C(=O)[C@@H](NC(=O)OC)C(C)C)[nH]6)cc5OC(F)F)ccc4c3[nH]2)N(C(=O)[C@H](NC(=O)OC)c2ccccc2)C1 [Example 567]
[1]
  EC50: 0.001 to 0.999 nM
[2]
  EC50: 0.007 nM
[3]
  EC50: 0.001 to 0.999 nM
[4]
  EC50: 0.001 to 0.999 nM
[5]
  EC50: 0.001 to 0.99 nM
[6]
  EC50: 0.001 to 0.99 nM
[7]
  EC50: 0.001 to 0.999 nM
[8]
  EC50: 0.001 to 0.999 nM

## COC[C@H]1C[C@@H](c2nc3ccc4cc(-c5ccc6c(ccc7nc([C@@H]8C[C@H](C)CN8C(=O)[C@@H](NC(=O)OC)C(C)C)[nH]c76)c5)ccc4c3[nH]2)N(C(=O)[C@@H](NC(=O)OC)C(C)C)C1 [Example 568]
[1]
  EC50: 0.001 to 0.999 nM
[2]
  EC50: 0.021 nM
[3]
  EC50: 0.001 to 0.999 nM
[4]
  EC50: 0.001 to 0.999 nM
[5]
  EC50: 0.001 to 0.99 nM
[6]
  EC50: 0.001 to 0.99 nM
[7]
  EC50: 0.001 to 0.999 nM
[8]
  EC50: 0.001 to 0.999 nM

## COC(=O)N[C@H](C(=O)N1C[C@@H](C)C[C@H]1c1ncc(-c2ccc3c(c2)COc2cc4c(ccc5nc([C@@H]6C[C@H](C)CN6C(=O)[C@@H](NC(=O)OC)C(C)C)[nH]c54)cc2-3)[nH]1)C(C)C [Example 569]
[1]
  EC50: 0.001 to 0.999 nM
[2]
  EC50: 0.024 nM
[3]
  EC50: 0.001 to 0.999 nM
[4]
  EC50: 0.001 to 0.999 nM
[5]
  EC50: 0.001 to 0.99 nM
[6]
  EC50: 0.001 to 0.99 nM
[7]
  EC50: 0.001 to 0.999 nM
[8]
  EC50: 0.001 to 0.999 nM

## COC[C@H]1C[C@@H](c2nc3ccc4cc5c(cc4c3[nH]2)OCc2cc(-c3cnc([C@@H]4CCCN4C(=O)[C@@H](NC(=O)OC)C(C)C)[nH]3)ccc2-5)N(C(=O)[C@H](N)c2ccccc2)C1 [Example 571]
[1]
  EC50: 0.001 to 0.999 nM
[2]
  EC50: 0.114 nM
[3]
  EC50: 0.001 to 0.999 nM
[4]
  EC50: 0.001 to 0.999 nM
[5]
  EC50: 0.001 to 0.99 nM
[6]
  EC50: 0.001 to 0.99 nM
[7]
  EC50: 0.001 to 0.999 nM
[8]
  EC50: 0.001 to 0.999 nM
